Data on one compound can be found in patent US20220267365A1, “NOVEL PHOSPHATE ESTER COMPOUND HAVING PYRROLOPYRIMIDINE SKELETON OR PHARMACEUTICALLY ACCEPTABLE SALT THEREOF” (TAIHO PHARMACEUTICAL CO., LTD., priority 2019, published 2022).

Format in all cases: cell-based
The test system of one experiment is H358. Description: Test Example 4 growth suppression activity, CellTiter-Glo. Particulars: NCI-H358, 72 h; H358, Human lung cancer, 3 days. As to the method:
(§1) Human tumor cell lines different in type were suspended in mediums, seeded in individual wells of a multi-well plate and cultured. On the day after initiation of culture, serially diluted solutions of a compound were added. Culture was carried out for further 3 days. Cells were counted by a CellTiter-Glo (manufactured by Promega KK) in accordance with the protocol recommended by Promega KK. Cell viability was calculated in accordance with the equation shown below and the concentration (IC50 (nM)) of the compound at which 50% of cell growth is inhibited was obtained.
(§2) Cell viability (%)=(T/C)×100
(§3) T: Intensity of light emitted from a well containing a compound
(§4) C: Intensity of light emitted from a well containing no compound
(In general: Cellular ATP, detected with luciferase, serves as a proxy for viable cell number.)

The subject of the next experiment is H2122. The description is as above. Particulars: NCI-H2122, 72 h; H2122, Human lung cancer, 3 days. The method, then:
as §1, §2, §3, §4

The test system of a further experiment is HCC827. The experiment is described as above. Particulars: 72 h; HCC827, Human lung cancer, 3 days. As to the method:
as §1, §2, §3, §4

For the next experiment, the system named is A549. Described as above. The following applies: 72 h; A549, Human lung cancer, 3 days. The method, then:
as §1, §2, §3, §4

The next experiment deals with SK-BR-3. The experiment is described as above. Particulars: 72 h; SK-BR-3, Human breast cancer, 3 days. As to the method: as §1, §2, §3, §4
A further experiment deals with H1650. The experiment is described as above. Particulars: NCI-H1650, 72 h; H1650, Human lung cancer, 3 days. The method, then:
as §1, §2, §3, §4

The next experiment has as its system A431. The description is as above. Particulars: A-431, 72 h; A431, Human epidermoid carcinoma, 3 days. The method, then:
as §1, §2, §3, §4

Experiment [1] concerns human brain tumor cell line (U-87 MG). Description: Test Example 9: combinational effect of compound and temozolomide (TMZ), crystal violet cell viability. The following applies: any order (same-day, compound first, TMZ first), Student's t-test. As to the method: A human brain tumor cell line (U-87 MG) was suspended in a medium, seeded in individual wells of a multi-well plate and cultured. In the case where two compounds are simultaneously added, both compounds were added on two days after initiation of culture. In the case where addition of the compound of the present invention preceded, a serially diluted solution of the compound was added on the day after initiation of culture and a serially diluted solution of TMZ was added two days after initiation of culture. In the case where addition of TMZ preceded, a serially diluted solution of TMZ was added on the day after initiation of culture and a serially diluted solution of the compound was added on two days after initiation of culture. Day 5 after seeding, cells were fixed with a 25% aqueous solution of glutaraldehyde and stained with a staining fluid (0.05 w/v % crystal violet in 20% methanol). After an extract (0.1 N NaH2PO4:100% ethanol=1:1) was added and stirred, an absorbance at 540 nm was measured to obtain a cell count. The cell viability was calculated in accordance with the following equation and statistically processed in accordance with a Student's t-test.
as §2
T: Absorbance of a well containing TMZ or a compound
C: Absorbance of a well containing neither TMZ nor a compound

The test system is the same in experiment [2]. Description: Test Example 8: combination use of compound and radiation, crystal violet cell viability. The following applies: any order (same-day, compound first, radiation first), Student's t-test. The method, then:
A human brain tumor cell line (U-87 MG) was suspended in a medium, seeded in individual wells of a multi-well plate and cultured. In the case where radiation exposure and addition of a compound are simultaneously carried out, both treatments were carried out on two days after initiation of culture. In the case where addition of a compound preceded radiation exposure, a serially diluted solution of a compound was added on the day after initiation of culture and radiation exposure was carried out on two days after initiation of culture. In the case where radiation exposure preceded addition of a compound, radiation exposure was carried out on the day after initiation of culture and a serially diluted solution of a compound was added on the two days after initiation of culture. Day 5 after seeding, cells were fixed with a 25% aqueous solution of glutaraldehyde and stained with a staining fluid (0.05 w/v % crystal violet in 20% methanol). After an extract (0.1 N NaH2PO4: 100% ethanol=1:1) was added and stirred, an absorbance at 540 nm was measured to obtain a cell count. The cell viability was calculated in accordance with the following equation and statistically processed in accordance with a Student's t-test.
as §2
T: Absorbance of a well exposed to radiation or containing a compound
C: Absorbance of a well neither exposed to radiation nor containing a compound

pIC50: −log10 of the molar value.

In general, pIC50 refers to the negative decadic logarithm of the IC50, by convention in mol/L. Higher therefore signals a low IC50. On to `Nc1ncnc2c1c(I)cn2[C@@H]1O[C@H](CO)[C@@H](O)[C@@H]1F` [Comparative Example 2, (2R,3R,4S,5R)-5-(4-amino-5-iodo-7H-pyrrolo[2,3-d]pyrimidin-7-yl)-4-fluoro-2-(hydroxymethyl) tetrahydrofuran-3-ol], for which the pIC50 in the experiment with H358 was 7.28; in the experiment with H2122, 8.05; with HCC827 it was 6.75; in the experiment on A549 it was 7.85; with SK-BR-3, 7.64; with H1650, 8.10. The pIC50 with A431 was 7.74. In addition, in experiment [1], the “cell viability, combination treatment with TMZ compared to the single treatments” value is on record as “significant decrease”. Moreover, the “cell viability, combination treatment with radiation exposure compared to the single treatments” value in experiment [2] is “significantly decreased”.
